Data reported in ChEMBL document CHEMBL1158845, “Antineoplastic agents. 386. Isolation of sesterstatins 1-3 from the marine sponge Hyrtios erecta” (1998).
≈ marks a conversion by molar mass, not a printed value. Calls of active or inactive are those of the source. The rule behind the calls is not given here.

Assays:
P388 = experiment: Cytotoxicity against mouse P388 cells; type: functional; settings: read-out: ED50 (the source's name)
Neisseria gonorrhoeae = experiment: Antibacterial activity against Neisseria gonorrhoeae at 100 ug/disk by disk susceptibility test; type: functional, organism-based
Micrococcus luteus = experiment: Antibacterial activity against Micrococcus luteus at 100 ug/disk by disk susceptibility test; type: functional, organism-based
Staphylococcus aureus [1] = experiment: Antibacterial activity against Staphylococcus aureus at 100 ug/disk by disk susceptibility test; type: functional, organism-based
Cryptococcus neoformans = experiment: Antimicrobial activity against Cryptococcus neoformans at 100 ug/disk by disk susceptibility test; type: functional, organism-based
Staphylococcus aureus [2] = experiment: Antibacterial activity against Staphylococcus aureus by disk susceptibility test; type: functional

MIC (Staphylococcus aureus [2]) [µg]	SMILES	EC50 (P388) [µg/mL]	Activity (Neisseria gonorrhoeae)	Activity (Micrococcus luteus)	Activity (Staphylococcus aureus [1])	Activity (Cryptococcus neoformans)
	CC1(C)[C@@H](O)CC[C@]2(C)[C@H]3C[C@@H](O)[C@]4(C)C5=C(CC[C@H]4[C@]3(C)CC[C@@H]12)COC5=O [SESTERSTATIN 1]	0.46 (≈ 1.14 µM)	inactive	inactive	inactive	inactive
50	C[C@]1(CO)CCC[C@]2(C)[C@H]3C[C@@H](O)[C@]4(C)C5=C(CC[C@H]4[C@]3(C)CC[C@@H]12)COC5=O [SESTERSTATIN 2]	4.2 (≈ 10.4 µM)	inactive	inactive		inactive
	C[C@@]1(CO)CCC[C@]2(C)[C@H]3C[C@@H](O)[C@]4(C)C5=C(CC[C@H]4[C@]3(C)CC[C@@H]12)COC5=O [SESTERSTATIN 3]	4.3 (≈ 10.7 µM)	inactive	inactive	inactive	inactive
